Measurements taken from US20040254128A1, “Treatment and prevention of heat shock protein-associated diseases and conditions” (priority 2001, published 2004).
Read-outs that look alike come from different tables or passages of the source.

Experiments:
[1] = test system: LPS endotoxin (Escherichia coli 0111:B4)-induced plasma TNF-α; details: for TNF-α at 1 hr: plasma 1 hr after LPS; for TNF-α at 2 hr: plasma 2 hr after LPS
Protocol: LPS endotoxin (300 ng/kg) was injected intravenously into untreated dogs (◯) or simultaneously with 0.1 mg/kg E5564 (Δ) one hour after E5564 administration (□) or three hours after E5564 administration (●). Blood was drawn and analyzed for TNF-α concentration by bioassay, as is described in the Appendix, below. Each value represents the mean±S.E.M. of four animals.
In both assays, activity of the antagonist is quantitated by analysis of the cytokines induced by LPS administration.
Escherichia coli LPS (Serotype 0111:B4; phenol extracted, Cat. # L-2630) was purchased from Sigma Chem. Co. Ltd., St. Louis, Mo., USA. Lyophylized E5564 was solubilized in 5 ml of sterile water (Otsuka Pharm. Co. Ltd., Tokyo, Japan). LPS was weighed to an accuracy of 1/10 mg and solubilized in 5% glucose (Otsuka Pharm. Co. Ltd., Tokyo, Japan). The LPS solution was sonicated with a bath-type sonicator for 15 minutes after which aliquots were immediately prepared and stored at −20° C. Prior to use, the solution was sonicated for one or two minutes, and then dilutions were prepared in 5% glucose.
Nine month-old beagles were obtained from Kawashima-shoji Co. Ltd., Gifu, Japan) and housed in stainless steel wire cages (W 800 mm×D 680 mm×H 680 mm; one dog per cage) in a room with a constant temperature of 20-24° C., humidity of 45-65%, and 12 hour light-dark cycle. The animals were provided with pellet food (DS, Oriental Yeast Co., Tokyo, Japan) and water ad libitum. LPS endotoxin (300 ng/0.1 ml/kg) was injected into the vein of the right foreleg at a rate of 1-2 ml/min, and E5564 was injected into the vein of the left foreleg at a rate of 10-20 ml/min.
Immediately before or 1, 2, or 4 hours after intravenous injection of LPS and E5564, 1.5 ml of blood was drawn from the left cephalic vein. One milliliter was transferred into a tube containing 10 U of heparin (Mochida Pharm. Co. Ltd., Tokyo, Japan), centrifuged (2000×g, 5 minutes, 4° C.), and the plasma was used for bioassays for TNF-α and IL-6.
Aliquots of the plasma were tested for TNF in a bioassay based on the TNF-dependent cell death of L-P3 cells in the presence of actinomycin D. The L-P3 cell line is more sensitive to TNF-induced cell death than the L-929 cell line that is more commonly used.

[2] = Pharmacokinetics in plasma after 72 hours intravenous infusion; details: beagle, dog
Protocol: Plasma levels of E5564 were determined during and after 72 hours of intravenous infusion of 0.03 mg/kg/hr E5564 (◯, ●), 0.1 mg/kg/hr E5564 (□, ▪), and 1 mg/kg/hr E5564 (Δ, ▴) into female (closed symbols) or male (open symbols) beagle dogs. At the indicated times, blood was drawn and analyzed for E5564 concentration by extraction and analysis by HPLC. Each value represents the mean±S.E.M. of three animals.

[3] = Pharmacokinetics in plasma after single bolus intravenous injection; details: dog
[4] = 0.1 mg/kg E5564 iv one hour before LPS 300 ng/kg iv
[5] = 0.1 mg/kg E5564 iv three hours before LPS 300 ng/kg iv

## CCCCCC/C=C\CCCCCCCCCC(=O)N[C@H]1[C@H](OC[C@H]2O[C@H](OP(=O)(O)O)[C@H](NC(=O)CC(=O)CCCCCCCCCCC)[C@@H](OCCCCCCCCCC)[C@@H]2O)O[C@H](COC)[C@@H](OP(=O)(O)O)[C@@H]1OCC[C@@H](CCCCCCC)OC [E5564, α-D-Glucopyranose, 3-O-decyl-2-deoxy-6-O-[2-deoxy-3-O-[(3R)-3-methoxydecyl)-6-O-methyl-2-[[(11Z)-1-oxo-11-octadecenyl)amino]-4-O-phosphono-β-D-glucopyranosyl]-2-[(1,3-dioxotetradecyl)amino]-, 1-(dihydrogen phosphate)]
[1]; 0.1 mg/kg E5564, LPS administered three hours after E5564 dose
  Activity of the endotoxin antagonist, % of its original activity: about 48%
[1]; [4]
  TNF-α at 1 hr: 0 units/ml
  TNF-α at 2 hr: 0 units/ml
[1]; 0.1 mg/kg E5564 iv simultaneously with LPS 300 ng/kg iv, n=4 dogs
  TNF-α at 1 hr: 0 units/ml
[1]; 0.1 mg/kg E5564 iv simultaneously with LPS 300 ng/kg iv
  TNF-α at 2 hr: 0 units/ml
[1]; [5]
  TNF-α at 1 hr: 1353 ± 340 units/ml
  TNF-α at 2 hr: 190 ± 113 units/ml
[2]; female, 0.1 mg/kg
  AUC(0-t): 790 ± 51 µg·h/mL
  concentration at 72 h: 10400 ± 930 ng/mL
  half-life: 40.9 ± 9.5 h
[2]; female, 0.3 mg/kg
  AUC(0-t): 2620 ± 737 µg·h/mL
  concentration at 72 h: 32400 ± 5720 ng/mL
  half-life: 38 ± 11.6 h
[2]; female, 1 mg/kg
  AUC(0-t): 29600 ± 1510 µg·h/mL
  concentration at 72 h: 394000 ± 14200 ng/mL
  half-life: 32 ± 2.8 h
[2]; male, 0.1 mg/kg
  AUC(0-t): 1070 ± 139 µg·h/mL
  concentration at 72 h: 13100 ± 1220 ng/mL
  half-life: 38.4 ± 4.5 h
[2]; male, 0.3 mg/kg
  AUC(0-t): 3310 ± 485 µg·h/mL
  concentration at 72 h: 41300 ± 7180 ng/mL
  half-life: 39.9 ± 11.2 h
[2]; male, 1 mg/kg
  AUC(0-t): 27100 ± 5740 µg·h/mL
  concentration at 72 h: 366000 ± 69300 ng/mL
  half-life: 35.1 ± 8.7 h
[3]; 0.1 mg/kg
  AUC: 71.8 µg·h/mL
  half-life: 41.7 ± 2.7 h
[3]; 0.3 mg/kg
  AUC: 271 ± 28.3 µg·h/mL
  half-life: 50.4 ± 2.2 h
[3]; 1 mg/kg
  AUC: 744 µg·h/mL
  half-life: 46.4 ± 2.7 h
